ChEMBL document CHEMBL3259629, “Discovery and optimization of piperidyl-1,2,3-triazole ureas as potent, selective, and in vivo-active inhibitors of α/β-hydrolase domain containing 6 (ABHD6)” (J Med Chem, 2013)

Key:
Conditions in all cases: Neuro2a, 3 nM
[1] = biological target: T1, Marginal zone B- and B1-cell-specific protein (Mus musculus) (UniProt Q9D8I1)
T1 sequence (whole entry): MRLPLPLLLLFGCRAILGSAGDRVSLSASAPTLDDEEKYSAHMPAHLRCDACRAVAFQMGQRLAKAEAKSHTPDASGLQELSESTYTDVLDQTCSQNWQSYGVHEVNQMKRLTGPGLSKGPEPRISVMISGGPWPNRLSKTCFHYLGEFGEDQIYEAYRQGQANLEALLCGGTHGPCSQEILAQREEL
Description: Inhibition of Perp1 in mouse Neuro2a cells at 3 nM after 4 hrs by ABPP-SILAC assay

[2] = biological target: T2, Lysosomal thioesterase PPT2 (Mus musculus) (UniProt O35448)
T2 sequence (whole entry): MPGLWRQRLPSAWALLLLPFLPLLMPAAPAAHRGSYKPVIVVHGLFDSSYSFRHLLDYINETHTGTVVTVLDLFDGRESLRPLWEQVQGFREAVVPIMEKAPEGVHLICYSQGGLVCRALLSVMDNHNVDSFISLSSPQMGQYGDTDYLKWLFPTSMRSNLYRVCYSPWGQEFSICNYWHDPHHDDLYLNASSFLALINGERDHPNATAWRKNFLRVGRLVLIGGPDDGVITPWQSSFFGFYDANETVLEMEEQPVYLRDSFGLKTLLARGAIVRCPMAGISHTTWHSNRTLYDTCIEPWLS
Description: Inhibition of Ppt2 in mouse Neuro2a cells at 3 nM after 4 hrs by ABPP-SILAC assay

[3] = biological target: Dipeptidyl peptidase 9 (Mus musculus) (UniProt Q8BVG4)
Description: Inhibition of DPP9 in mouse Neuro2a cells at 3 nM after 4 hrs by ABPP-SILAC assay

[4] = biological target: T3, Lysosomal phospholipase A and acyltransferase (Mus musculus) (UniProt Q8VEB4)
T3 sequence (whole entry): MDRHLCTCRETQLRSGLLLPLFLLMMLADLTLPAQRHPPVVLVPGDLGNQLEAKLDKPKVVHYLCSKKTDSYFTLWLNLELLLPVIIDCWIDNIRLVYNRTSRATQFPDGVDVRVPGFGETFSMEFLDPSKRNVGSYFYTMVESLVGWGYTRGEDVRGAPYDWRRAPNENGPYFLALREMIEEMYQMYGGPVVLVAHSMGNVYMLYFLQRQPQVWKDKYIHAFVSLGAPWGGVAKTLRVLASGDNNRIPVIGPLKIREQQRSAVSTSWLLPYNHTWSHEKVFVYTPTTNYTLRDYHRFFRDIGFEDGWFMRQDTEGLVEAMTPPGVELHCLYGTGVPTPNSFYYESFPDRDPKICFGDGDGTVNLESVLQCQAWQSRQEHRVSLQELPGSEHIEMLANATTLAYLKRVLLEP
Description: Inhibition of Lypla3 in mouse Neuro2a cells at 3 nM after 4 hrs by ABPP-SILAC assay

[5] = biological target: T4, Palmitoyl-protein thioesterase ABHD10, mitochondrial (Mus musculus) (UniProt Q6PE15)
T4 sequence (whole entry): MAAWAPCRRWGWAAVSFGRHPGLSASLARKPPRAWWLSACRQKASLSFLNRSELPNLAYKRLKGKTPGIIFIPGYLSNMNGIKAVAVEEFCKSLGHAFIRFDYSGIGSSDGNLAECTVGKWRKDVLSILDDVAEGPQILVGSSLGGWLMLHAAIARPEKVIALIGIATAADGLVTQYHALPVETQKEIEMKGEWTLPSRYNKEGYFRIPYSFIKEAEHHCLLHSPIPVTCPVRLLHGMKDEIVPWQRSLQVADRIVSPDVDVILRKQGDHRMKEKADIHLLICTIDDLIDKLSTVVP
Description: Inhibition of Abhd10 in mouse Neuro2a cells at 3 nM after 4 hrs by ABPP-SILAC assay

[6] = biological target: Tissue-type plasminogen activator (Mus musculus) (UniProt P11214)
Description: Inhibition of Plat in mouse Neuro2a cells at 3 nM after 4 hrs by ABPP-SILAC assay

[7] = biological target: Acyl-protein thioesterase 2 (Mus musculus) (UniProt Q9WTL7)
Description: Inhibition of Lypla2 in mouse Neuro2a cells at 3 nM after 4 hrs by ABPP-SILAC assay

[8] = biological target: T5, 85/88 kDa calcium-independent phospholipase A2 (Mus musculus) (UniProt P97819)
T5 sequence (whole entry): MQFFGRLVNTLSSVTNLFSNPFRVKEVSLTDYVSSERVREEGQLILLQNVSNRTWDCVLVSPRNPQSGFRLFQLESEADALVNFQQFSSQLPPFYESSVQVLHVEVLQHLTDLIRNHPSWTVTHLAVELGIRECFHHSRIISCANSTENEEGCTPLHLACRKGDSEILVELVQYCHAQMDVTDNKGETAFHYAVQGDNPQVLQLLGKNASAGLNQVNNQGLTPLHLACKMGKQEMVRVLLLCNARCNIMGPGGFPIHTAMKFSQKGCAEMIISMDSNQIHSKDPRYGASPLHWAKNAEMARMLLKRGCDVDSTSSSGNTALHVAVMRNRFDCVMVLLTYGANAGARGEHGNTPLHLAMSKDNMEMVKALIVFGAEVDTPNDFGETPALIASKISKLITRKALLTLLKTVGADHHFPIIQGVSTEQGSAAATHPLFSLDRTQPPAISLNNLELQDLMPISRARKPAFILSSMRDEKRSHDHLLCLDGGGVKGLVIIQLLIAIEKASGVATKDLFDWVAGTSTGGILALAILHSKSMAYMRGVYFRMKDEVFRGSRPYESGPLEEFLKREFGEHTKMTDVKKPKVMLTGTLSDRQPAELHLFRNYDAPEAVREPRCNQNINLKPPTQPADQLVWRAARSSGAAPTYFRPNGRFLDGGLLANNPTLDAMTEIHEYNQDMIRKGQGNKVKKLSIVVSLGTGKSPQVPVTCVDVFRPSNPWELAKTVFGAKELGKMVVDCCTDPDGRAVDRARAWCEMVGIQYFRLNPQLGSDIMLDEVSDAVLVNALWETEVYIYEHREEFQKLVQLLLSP
Description: Inhibition of Pla2g6 in mouse Neuro2a cells at 3 nM after 4 hrs by ABPP-SILAC assay

[9] = biological target: T6, Phospholipase DDHD1 (Mus musculus) (UniProt Q80YA3)
T6 sequence (whole entry): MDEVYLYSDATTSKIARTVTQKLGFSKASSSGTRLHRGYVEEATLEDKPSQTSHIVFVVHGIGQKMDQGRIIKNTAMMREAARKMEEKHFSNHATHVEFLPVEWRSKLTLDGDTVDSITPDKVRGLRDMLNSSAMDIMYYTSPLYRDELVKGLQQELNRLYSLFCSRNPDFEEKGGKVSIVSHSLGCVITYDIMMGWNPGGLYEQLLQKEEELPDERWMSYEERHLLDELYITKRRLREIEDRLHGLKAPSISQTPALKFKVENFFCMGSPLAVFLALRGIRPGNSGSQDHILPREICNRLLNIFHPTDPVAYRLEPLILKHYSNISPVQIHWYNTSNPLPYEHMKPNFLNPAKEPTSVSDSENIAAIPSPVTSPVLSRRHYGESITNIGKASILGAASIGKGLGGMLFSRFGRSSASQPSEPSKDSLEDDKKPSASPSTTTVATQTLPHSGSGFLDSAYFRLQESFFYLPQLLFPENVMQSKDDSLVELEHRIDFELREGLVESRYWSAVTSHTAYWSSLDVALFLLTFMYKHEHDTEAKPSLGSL
Description: Inhibition of Ddhd1 in mouse Neuro2a cells at 3 nM after 4 hrs by ABPP-SILAC assay

Measured: inhibition

Acyl-protein thioesterase 2 (Mus musculus), sequence (Q9WTL7 whole entry): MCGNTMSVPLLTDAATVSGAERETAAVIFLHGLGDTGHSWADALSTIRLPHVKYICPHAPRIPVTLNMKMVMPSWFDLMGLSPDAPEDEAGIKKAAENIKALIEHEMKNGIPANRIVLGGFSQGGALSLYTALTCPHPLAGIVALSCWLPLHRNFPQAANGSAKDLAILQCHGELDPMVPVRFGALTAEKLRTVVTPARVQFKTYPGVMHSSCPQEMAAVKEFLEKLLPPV
Dipeptidyl peptidase 9 (Mus musculus), sequence (Q8BVG4 whole entry): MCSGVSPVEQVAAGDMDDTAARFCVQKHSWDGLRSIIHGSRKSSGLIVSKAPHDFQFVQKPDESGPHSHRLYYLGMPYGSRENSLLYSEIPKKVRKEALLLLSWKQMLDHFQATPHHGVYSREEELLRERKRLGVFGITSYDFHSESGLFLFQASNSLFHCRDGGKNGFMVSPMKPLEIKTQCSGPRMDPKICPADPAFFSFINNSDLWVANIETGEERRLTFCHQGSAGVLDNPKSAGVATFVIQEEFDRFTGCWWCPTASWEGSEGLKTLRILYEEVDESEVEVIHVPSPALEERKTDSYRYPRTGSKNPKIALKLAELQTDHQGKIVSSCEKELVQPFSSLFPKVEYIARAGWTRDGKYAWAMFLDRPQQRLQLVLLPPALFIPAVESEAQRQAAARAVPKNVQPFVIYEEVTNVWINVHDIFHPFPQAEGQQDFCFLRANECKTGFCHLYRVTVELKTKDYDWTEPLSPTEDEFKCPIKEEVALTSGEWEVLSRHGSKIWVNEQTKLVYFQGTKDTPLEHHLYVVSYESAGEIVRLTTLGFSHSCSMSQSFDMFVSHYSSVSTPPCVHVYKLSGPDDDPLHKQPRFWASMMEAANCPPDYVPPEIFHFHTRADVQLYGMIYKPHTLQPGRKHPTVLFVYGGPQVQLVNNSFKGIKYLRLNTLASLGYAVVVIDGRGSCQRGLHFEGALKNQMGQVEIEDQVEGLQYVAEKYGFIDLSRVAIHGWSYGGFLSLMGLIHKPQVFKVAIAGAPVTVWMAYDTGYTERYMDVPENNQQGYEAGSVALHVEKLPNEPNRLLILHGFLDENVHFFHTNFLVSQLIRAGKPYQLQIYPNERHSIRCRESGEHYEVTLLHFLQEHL
Tissue-type plasminogen activator (Mus musculus), sequence (P11214 whole entry): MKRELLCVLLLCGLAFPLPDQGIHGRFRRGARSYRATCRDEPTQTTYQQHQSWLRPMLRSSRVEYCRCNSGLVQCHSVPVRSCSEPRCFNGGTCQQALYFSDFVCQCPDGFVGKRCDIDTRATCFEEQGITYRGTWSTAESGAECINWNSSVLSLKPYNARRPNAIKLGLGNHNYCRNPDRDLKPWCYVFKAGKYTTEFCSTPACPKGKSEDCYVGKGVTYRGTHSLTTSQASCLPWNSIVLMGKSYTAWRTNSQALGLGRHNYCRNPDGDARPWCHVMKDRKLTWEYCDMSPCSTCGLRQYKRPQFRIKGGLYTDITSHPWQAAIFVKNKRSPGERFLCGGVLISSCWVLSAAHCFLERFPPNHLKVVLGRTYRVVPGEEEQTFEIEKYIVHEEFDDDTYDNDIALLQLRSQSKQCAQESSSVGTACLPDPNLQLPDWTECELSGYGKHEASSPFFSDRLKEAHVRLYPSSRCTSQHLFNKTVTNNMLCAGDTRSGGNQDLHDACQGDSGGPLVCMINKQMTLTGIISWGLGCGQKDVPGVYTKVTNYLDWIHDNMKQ

O=C(N1CCCCC1c1ccccc1)n1cc(-c2ccc(-c3cccc(CO)c3)cc2)nn1 (racemic)
< 50%: all assays above

O=C(c1cccc(-c2ccc(-c3cn(C(=O)N4CCCCC4c4ccccc4)nn3)cc2)c1)N1CCCCC1 (racemic)
< 50%: all assays above

O=C(O)c1cccc(-c2ccc(-c3cn(C(=O)N4CCCCC4Cc4ccccc4)nn3)cc2)c1 (racemic)
< 50%: all assays above
